This note sets out measurements from patent US9156860B2, “Boron-containing small molecules” (Anacor Pharmaceuticals, Inc., priority 2011, dated 2015).

Molecules are shown by their SMILES.

The assay deals with adult cat flea (Ctenocephalides felis). Briefly: Example 7: therapeutic efficacy and speed of kill against adult cat flea infestations on dogs. It counts as in vivo. As to conditions: 25 mg/kg oral. How it is done:
The therapeutic efficacy and speed of kill of 7, administered orally at a point dose of 25 mg/kg bodyweight, was evaluated against adult cat flea (Ctenocephalides felis) infestations on dogs. Twelve (12) male and female beagle dogs were allocated to one of four treatment groups (n=3 dogs per group). Group A was untreated, negative control; groups B, C and D received 7. On Day −1, all dogs were infested with approximately 100 unfed, adult fleas (approximately 50% male and 50% female). On Day 0, dogs in groups B, C and D were orally administered gelatin capsules containing 7, at a point dose of 25 mg/kg (50% technical active, 47% microcrystalline cellulose and 3% croscarmellose sodium, w/w). At eight (8) hours post-treatment, fleas were counted and removed from dogs in group B; at twelve (12) hours post-treatment, fleas were counted and removed from dogs in group C; and at twenty-four (24) hours post-treatment, fleas were counted and removed from dogs in groups A and D. GM percent efficacy of treatments against fleas was calculated using the following formula: […]

In the case of `CC1(C)OB(O)c2ccc(C3=NOC(c4cc(Cl)c(Cl)c(Cl)c4)(C(F)(F)F)C3)cc21` (racemic) [Compound 7, 3,3-Dimethyl-5-(5-(3,4,5-trichlorophenyl)-5-(trifluoromethyl)-4,5-dihydroisoxazol-3-yl)benzo[c][1,2]oxaborol-1(3H)-ol], the “% efficacy” value (8 hours post-treatment) was “(11.8) %”. For the same compound, the “Geometric mean group live flea count” value worked out at 75.6 (8 hours post-treatment), 0.3 (12 hours post-treatment) and 0.0 (24 hours post-treatment).
